Experimental data published in ChEMBL document CHEMBL1201862, “PubChem BioAssay data set” (2004).
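Cultured in 96-well plates, cells were exposed to test compound for 48 hours across five concentrations. GI50: concentration for 50% inhibition of growth.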 The source made the active and inactive calls. No stated cut-off is given here; in the data, active = GI50 up to about 1.1 µM and inactive = higher.

Legend:
Test in all cases: NCI anticancer screen, dose series, 48 h
A498 = test system: A498
A549 = test system: A549
HOP-62 = test system: HOP-62
HOP-92 = test system: HOP-92
K562 = test system: K562
KM12 = test system: KM12
NCI-H522 = test system: NCI-H522
OVCAR-5 = test system: OVCAR-5
OVCAR-8 = test system: OVCAR-8
RPMI-8226 = test system: RPMI-8226
SF-268 = test system: SF-268
SF-539 = test system: SF-539
SK-MEL-5 = test system: SK-MEL-5
SNB-19 = test system: SNB-19
SR = test system: SR
SW-620 = test system: SW-620
U-251 = test system: U-251
UACC-257 = test system: UACC-257
UACC-62 = test system: UACC-62
UO-31 = test system: UO-31

Compound	GI50 (A498)	GI50 (A549)	GI50 (HOP-62)	GI50 (HOP-92)	GI50 (K562)	GI50 (KM12)	GI50 (NCI-H522)	GI50 (OVCAR-5)	GI50 (OVCAR-8)	GI50 (RPMI-8226)	GI50 (SF-268)	GI50 (SF-539)	GI50 (SK-MEL-5)	GI50 (SNB-19)	GI50 (SR)	GI50 (SW-620)	GI50 (U-251)	GI50 (UACC-257)	GI50 (UACC-62)	GI50 (UO-31)
N=C(N)NCC(N)C(=O)O (stereo not given)	> 100 µM (inactive)	> 100 µM (inactive)	> 100 µM (inactive)	> 100 µM (inactive)	> 100 µM (inactive)	> 100 µM (inactive)	> 100 µM (inactive)	> 100 µM (inactive)	> 100 µM (inactive)	> 100 µM (inactive)	> 100 µM (inactive)	> 100 µM (inactive)	> 100 µM (inactive)	> 100 µM (inactive)	> 100 µM (inactive)	> 100 µM (inactive)	> 100 µM (inactive)	> 100 µM (inactive)	> 100 µM (inactive)	> 100 µM (inactive)
CC1OC1C(=O)P(=O)(O)O (stereo not given)	> 100 µM (inactive)	> 100 µM (inactive)	> 100 µM (inactive)	> 100 µM (inactive)	> 100 µM (inactive)	> 100 µM (inactive)	> 100 µM (inactive)	> 100 µM (inactive)	> 100 µM (inactive)	> 100 µM (inactive)	> 100 µM (inactive)	> 100 µM (inactive)	> 100 µM (inactive)	> 100 µM (inactive)	> 100 µM (inactive)	> 100 µM (inactive)	> 100 µM (inactive)	> 100 µM (inactive)	> 100 µM (inactive)	> 100 µM (inactive)
Cc1ccc(C2(O)c3ccccc3C(=O)N(C)C2(O)c2ccc(C)cc2)cc1 (stereo not given)	> 100 µM (inactive)	> 100 µM (inactive)	22 µM (inactive)	18.6 µM (inactive)	28.4 µM (inactive)	29.9 µM (inactive)	> 100 µM (inactive)	> 100 µM (inactive)	25.5 µM (inactive)	> 100 µM (inactive)	21.2 µM (inactive)	45.1 µM (inactive)	33.5 µM (inactive)	21.5 µM (inactive)	2.39 µM (inactive)	34.5 µM (inactive)	17.4 µM (inactive)	> 100 µM (inactive)	> 100 µM (inactive)	57.8 µM (inactive)
CCN(CC)CCn1nc2c3c(c(NCCN)ccc31)Sc1cc(O)ccc1-2	1.36 µM (inactive)	0.176 µM (active)	0.416 µM (active)	0.94 µM (active)	0.314 µM (active)	0.615 µM (active)	0.175 µM (active)	1.56 µM (inactive)	0.535 µM (active)	0.377 µM (active)	0.493 µM (active)	0.406 µM (active)	0.733 µM (active)	0.611 µM (active)	0.201 µM (active)	0.351 µM (active)	0.254 µM (active)	1.84 µM (inactive)	0.371 µM (active)	12.3 µM (inactive)
CCCCCCCCCCCCNC(=S)OC	16.9 µM (inactive)	17.5 µM (inactive)	18 µM (inactive)	7.08 µM (inactive)	17.5 µM (inactive)	15.4 µM (inactive)	13.2 µM (inactive)	16.3 µM (inactive)	15.8 µM (inactive)	7.98 µM (inactive)	16.6 µM (inactive)	17 µM (inactive)	17.3 µM (inactive)	24.7 µM (inactive)	3.01 µM (inactive)	16.6 µM (inactive)	16 µM (inactive)	16.7 µM (inactive)	16.1 µM (inactive)	4.13 µM (inactive)
Cn1c(=O)c2nc3sc4c(n3c2n(C)c1=O)C(=O)c1ccccc1C4=O	> 100 µM (inactive)	> 81.7 µM (inactive)	> 38.9 µM (inactive)	16.5 µM (inactive)	63.2 µM (inactive)	> 100 µM (inactive)	11 µM (inactive)	> 100 µM (inactive)	> 58.6 µM (inactive)	38.4 µM (inactive)	> 78.5 µM (inactive)	> 61.7 µM (inactive)	> 75 µM (inactive)	> 44.1 µM (inactive)	19.5 µM (inactive)	> 66.5 µM (inactive)	39 µM (inactive)	> 88.9 µM (inactive)	> 100 µM (inactive)	> 66.2 µM (inactive)
CSC1(SC)N2Cc3ccccc3N=C2C1(c1ccccc1)c1ccccc1	15.7 µM (inactive)	13.8 µM (inactive)	> 44.9 µM (inactive)	4.12 µM (inactive)	10.1 µM (inactive)	7.73 µM (inactive)	5.96 µM (inactive)	> 40.1 µM (inactive)	29.2 µM (inactive)	5.38 µM (inactive)	21.3 µM (inactive)	12.8 µM (inactive)	11.4 µM (inactive)	> 48.3 µM (inactive)	1.95 µM (inactive)	13 µM (inactive)	15.1 µM (inactive)	13 µM (inactive)	12.6 µM (inactive)	24.8 µM (inactive)
